Experimental data taken from the NIST ThermoML archive (doi:10.1016/j.jct.2013.01.005).
Numbers after ± are expanded uncertainties.

Assay: activity coefficient (dimensionless); of the first substance listed, at infinite dilution; xn = mol fraction of the nth substance listed
Conditions: 101 kPa, Liquid, Chromatography, x1 = 0

Row | Structure (SMILES) | activity coefficient (308.15 K) | activity coefficient (318.15 K) | activity coefficient (328.15 K) | activity coefficient (338.15 K) | activity coefficient (348.15 K) | activity coefficient (358.15 K)
1 | O [water] + CCCCCC[N+]1(C)CCCCC1.O=S(=O)([N-]S(=O)(=O)C(F)(F)F)C(F)(F)F | 5.31 ± 0.36 | 4.46 ± 0.3 | 3.81 ± 0.26 | 3.26 ± 0.22 | 2.8 ± 0.19 | 2.45 ± 0.17
2 | Cc1ccccc1 [toluene] + CCCCCC[N+]1(C)CCCCC1.O=S(=O)([N-]S(=O)(=O)C(F)(F)F)C(F)(F)F | 0.864 ± 0.055 | 0.894 ± 0.057 | 0.909 ± 0.058 | 0.934 ± 0.059 | 0.957 ± 0.06 | 0.969 ± 0.061
3 | CCCCCCCCC [nonane] + CCCCC[N+]1(C)CCCCC1.O=S(=O)([N-]S(=O)(=O)C(F)(F)F)C(F)(F)F | 24.2 ± 1.7 | 22.4 ± 1.5 | 21.1 ± 1.4 | 19.9 ± 1.4 | 19 ± 1.3 | 18 ± 1.2
4 | CCCCCCCC [octane] + CCCCCC[N+]1(C)CCCCC1.O=S(=O)([N-]S(=O)(=O)C(F)(F)F)C(F)(F)F | 12.9 ± 0.9 | 12.7 ± 0.9 | 12.1 ± 0.8 | 11.8 ± 0.8 | 11.3 ± 0.8 | 10.9 ± 0.7
5 | C1CCCCCC1 [cycloheptane] + CCCCCC[N+]1(C)CCCCC1.O=S(=O)([N-]S(=O)(=O)C(F)(F)F)C(F)(F)F | 6.23 ± 0.42 | 6.01 ± 0.41 | 5.77 ± 0.39 | 5.52 ± 0.38 | 5.32 ± 0.36 | 5.08 ± 0.35
6 | CC(C)=O [acetone] + CCCCCC[N+]1(C)CCCCC1.O=S(=O)([N-]S(=O)(=O)C(F)(F)F)C(F)(F)F | 0.421 ± 0.035 | 0.429 ± 0.035 | 0.436 ± 0.035 | 0.444 ± 0.036 | 0.455 ± 0.036 | 0.46 ± 0.036
7 | Cc1ccc(C)cc1 [1,4-dimethylbenzene] + CCCCC[N+]1(C)CCCCC1.O=S(=O)([N-]S(=O)(=O)C(F)(F)F)C(F)(F)F | 1.16 ± 0.07 | 1.24 ± 0.08 | 1.28 ± 0.08 | 1.32 ± 0.09 | 1.37 ± 0.09 | 1.4 ± 0.09
8 | COC(C)(C)C [2-methoxy-2-methylpropane] + CCCCCC[N+]1(C)CCCCC1.O=S(=O)([N-]S(=O)(=O)C(F)(F)F)C(F)(F)F | 1.59 ± 0.11 | 1.63 ± 0.11 | 1.66 ± 0.11 | 1.7 ± 0.11 | 1.72 ± 0.12 | 1.76 ± 0.12
9 | C1=CCCCC1 [cyclohexene] + CCCCCC[N+]1(C)CCCCC1.O=S(=O)([N-]S(=O)(=O)C(F)(F)F)C(F)(F)F | 3.07 ± 0.21 | 3 ± 0.2 | 2.94 ± 0.2 | 2.88 ± 0.2 | 2.81 ± 0.19 | 2.75 ± 0.19
10 | CCCCCCCCC [nonane] + CCCCCC[N+]1(C)CCCCC1.O=S(=O)([N-]S(=O)(=O)C(F)(F)F)C(F)(F)F | 16.9 ± 1.2 | 16.4 ± 1.1 | 15.7 ± 1.1 | 15.3 ± 1 | 14.6 ± 1 | 14.1 ± 1
11 | C=CCCCCCCCC [1-decene] + CCCCC[N+]1(C)CCCCC1.O=S(=O)([N-]S(=O)(=O)C(F)(F)F)C(F)(F)F | 17.1 ± 1.2 | 16.5 ± 1.1 | 15.9 ± 1.1 | 15.5 ± 1.1 | 15.3 ± 1 | 14.6 ± 1
12 | CCO [ethanol] + CCCCC[N+]1(C)CCCCC1.O=S(=O)([N-]S(=O)(=O)C(F)(F)F)C(F)(F)F | 1.79 ± 0.12 | 1.58 ± 0.1 | 1.46 ± 0.1 | 1.35 ± 0.09 | 1.27 ± 0.08 | 1.18 ± 0.08
13 | C1CCCC1 [cyclopentane] + CCCCC[N+]1(C)CCCCC1.O=S(=O)([N-]S(=O)(=O)C(F)(F)F)C(F)(F)F | 4.72 ± 0.32 | 4.5 ± 0.31 | 4.24 ± 0.29 | 3.98 ± 0.27 | 3.82 ± 0.26 | 3.72 ± 0.25
14 | CCc1ccccc1 [ethylbenzene] + CCCCC[N+]1(C)CCCCC1.O=S(=O)([N-]S(=O)(=O)C(F)(F)F)C(F)(F)F | 1.26 ± 0.08 | 1.31 ± 0.09 | 1.35 ± 0.09 | 1.37 ± 0.09 | 1.42 ± 0.09 | 1.43 ± 0.09
15 | Cc1cccc(C)c1 [1,3-dimethylbenzene] + CCCCC[N+]1(C)CCCCC1.O=S(=O)([N-]S(=O)(=O)C(F)(F)F)C(F)(F)F | 1.15 ± 0.07 | 1.24 ± 0.08 | 1.28 ± 0.08 | 1.31 ± 0.09 | 1.36 ± 0.09 | 1.39 ± 0.09
16 | C1CCOC1 [tetrahydrofuran] + CCCCC[N+]1(C)CCCCC1.O=S(=O)([N-]S(=O)(=O)C(F)(F)F)C(F)(F)F | 0.617 ± 0.043 | 0.627 ± 0.043 | 0.641 ± 0.044 | 0.653 ± 0.045 | 0.667 ± 0.045 | 0.682 ± 0.046
17 | CCO [ethanol] + CCCCCC[N+]1(C)CCCCC1.O=S(=O)([N-]S(=O)(=O)C(F)(F)F)C(F)(F)F | 1.81 ± 0.12 | 1.63 ± 0.11 | 1.49 ± 0.1 | 1.37 ± 0.09 | 1.27 ± 0.08 | 1.18 ± 0.08
18 | C1CCCCC1 [cyclohexane] + CCCCC[N+]1(C)CCCCC1.O=S(=O)([N-]S(=O)(=O)C(F)(F)F)C(F)(F)F | 6.4 ± 0.44 | 5.95 ± 0.41 | 5.64 ± 0.38 | 5.42 ± 0.37 | 5.13 ± 0.35 | 4.99 ± 0.34
19 | CCC(C)(C)OC [2-methoxy-2-methylbutane] + CCCCC[N+]1(C)CCCCC1.O=S(=O)([N-]S(=O)(=O)C(F)(F)F)C(F)(F)F | 2.44 ± 0.17 | 2.47 ± 0.17 | 2.5 ± 0.17 | 2.53 ± 0.17 | 2.57 ± 0.17 | 2.6 ± 0.18
20 | C1CCCCCCC1 [cyclooctane] + CCCCCC[N+]1(C)CCCCC1.O=S(=O)([N-]S(=O)(=O)C(F)(F)F)C(F)(F)F | 7.57 ± 0.52 | 7.36 ± 0.5 | 7.15 ± 0.49 | 6.87 ± 0.47 | 6.75 ± 0.46 | 6.53 ± 0.45
21 | CCCCO [butan-1-ol] + CCCCC[N+]1(C)CCCCC1.O=S(=O)([N-]S(=O)(=O)C(F)(F)F)C(F)(F)F | 2.3 ± 0.16 | 2.16 ± 0.15 | 1.98 ± 0.13 | 1.82 ± 0.12 | 1.71 ± 0.11 | 1.57 ± 0.1
22 | CCCCCCCCCC [decane] + CCCCCC[N+]1(C)CCCCC1.O=S(=O)([N-]S(=O)(=O)C(F)(F)F)C(F)(F)F | 23.5 ± 1.6 | 22.2 ± 1.5 | 21.1 ± 1.4 | 20 ± 1.4 | 19.1 ± 1.3 | 18.3 ± 1.3
23 | C#CCCCCCC [1-octyne] + CCCCC[N+]1(C)CCCCC1.O=S(=O)([N-]S(=O)(=O)C(F)(F)F)C(F)(F)F | 3.71 ± 0.25 | 3.74 ± 0.25 | 3.76 ± 0.26 | 3.79 ± 0.26 | 3.81 ± 0.26 | 3.84 ± 0.26
